Results published in PubChem BioAssay (NCI).
Values joined by “and” are separate entries in the source; they are usually repeats but may differ in a detail not shown here. Equal values may be shown once.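 All cell lines were grown in 96-well plates and treated with compound for 48 hours. GI50: concentration for 50% inhibition of growth. Definition used: TGI = concentration required for complete inhibition of growth.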

Columns and labels:
Assay in all cases: NCI tumour cell line growth inhibition, 48 h
BT-549 breast = test system: BT-549 breast
MDA-MB-435 = test system: MDA-MB-435
MOLT-4 leukemia = test system: MOLT-4 leukemia
NCI-H460 lung = test system: NCI-H460 lung
OVCAR-3 ovarian = test system: OVCAR-3 ovarian
PC-3 prostate = test system: PC-3 prostate
SK-MEL-5 melanoma = test system: SK-MEL-5 melanoma
SK-OV-3 ovarian = test system: SK-OV-3 ovarian
SN12C renal = test system: SN12C renal
U251 CNS = test system: U251 CNS

SMILES | TGI (BT-549 breast) [µM] | TGI (MDA-MB-435) [µM] | GI50 (MOLT-4 leukemia) [µM] | TGI (MOLT-4 leukemia) [µM] | GI50 (NCI-H460 lung) [µM] | TGI (NCI-H460 lung) | GI50 (OVCAR-3 ovarian) [µM] | TGI (OVCAR-3 ovarian) | TGI (PC-3 prostate) [µM] | GI50 (SK-MEL-5 melanoma) [µM] | TGI (SK-MEL-5 melanoma) | GI50 (SK-OV-3 ovarian) [µM] | TGI (SK-OV-3 ovarian) [µM] | GI50 (SN12C renal) [µM] | TGI (SN12C renal) | GI50 (U251 CNS) [µM] | TGI (U251 CNS) | GI50 (BT-549 breast) [µM] | GI50 (MDA-MB-435) [µM] | GI50 (PC-3 prostate) [µM]
NC(=O)c1nnn(Cc2cc(Cl)c(C(=O)c3ccc(Cl)cc3)c(Cl)c2)c1N | > 52.4 | > 40.7 | > 9.09 | > 90.7 | 1.04 | > 9.09 µM and 40.2 µM | > 9.09 | > 9.09 µM and 25 µM | > 50.2 | > 9.09 | > 9.09 µM and 32.7 µM | > 9.09 | > 52.9 | > 9.09 | > 9.09 µM and 46.8 µM | > 9.09 | > 9.09 µM and 38.1 µM | – | – | –
Fc1ccc(-c2ncn(C3CCNCC3)c2-c2ccnc(Oc3ccccc3)n2)cc1 | > 25 | > 25 | 23.4 | > 25 | 16.1 | > 25 µM | > 25 | > 25 µM | > 25 | 4.87 | 14.1 µM | 20.1 | > 25 | 18.5 | > 25 µM | 15.2 | > 25 µM | 23 | 17.8 | > 25
SC[C@@H]1COC[C@H](CS)S1 | > 100 | > 100 | – | > 100 | – | > 100 µM | – | > 100 µM | > 100 | – | > 100 µM | – | > 100 | – | > 100 µM | – | > 100 µM | – | – | –
CCOC(=O)C1=C(N)Oc2c(sc3c(C)cccc23)C1c1ccc(Cl)cc1 (configuration not stated) | 15.8 | 2.59 | 3.58 | 19.7 | 3.29 | 11.6 µM | 2.69 | 9.61 µM | 13.5 | 4.04 | 14.4 µM | 7.97 | 30.1 | 3.97 | 16.1 µM | 3.46 | 14.8 µM | 3.3 | 0.447 | 2.53
COC(=O)NNc1c([N+](=O)[O-])cnn(-c2ccccc2)c1=O | 3.21 | 3.03 | – | 2.61 | – | 15.9 µM | – | 3.56 µM | 3.21 | – | 8.36 µM | – | 17 | – | 3.49 µM | – | 4.59 µM | – | – | –
O=C(O)CNC(=O)c1ccccc1O | > 100 | > 100 | – | > 100 | – | > 100 µM | – | > 100 µM | > 100 | – | > 100 µM | – | > 100 | – | > 100 µM | – | > 100 µM | – | – | –
O=C(c1ccccc1)c1ccc(Cl)c([N+](=O)[O-])c1 | 31.5 | 17.1 | 4.17 | 22.3 | 18.5 | 39.3 µM | 3.83 | 12.7 µM | 29.8 | 14.7 | 28.3 µM | 15.8 | 29.9 | 3.81 | 14.8 µM | 7.35 | 20.3 µM | 16.7 | 4.53 | 8.22
O=C(c1ccccn1)c1nnn2ccccc12 | > 100 | > 100 | – | > 100 | – | > 100 µM | – | > 100 µM | > 100 | – | > 100 µM | – | > 100 | – | > 100 µM | – | > 100 µM | – | – | –
COc1ccc(-c2cn(-c3ccc(Cl)cc3)c(=S)[nH]2)cc1OC | > 100 | > 100 | > 100 | > 100 | 3.92 | > 100 µM | 47.2 | > 100 µM | > 100 | 2.92 | > 100 µM | 48.9 | > 100 | 7.52 | > 100 µM | 12.3 | > 100 µM | 7.3 | > 100 | 65.5
CC1(C)CC[C@]2(C(=O)n3ccnc3)CC[C@]3(C)[C@H](C(=O)C=C4[C@@]5(C)C=C(C#N)C(=O)C(C)(C)[C@@H]5CC[C@]43C)[C@@H]2C1 | 0.126 | 0.0373 | < 0.01 | < 0.01 | < 0.0179 | > 100 µM | < 0.01 | 0.0994 µM | 0.0655 | 0.0923 | 0.262 µM | 0.0347 | 0.317 | < 0.0177 | 0.0404 µM | < 0.01 | 0.0281 µM | < 0.0328 | < 0.0148 | < 0.0142
Nc1ncnc2c1c(-c1cccc(OCc3ccccc3)c1)cn2C1CC(CN2CCCC2)C1 (configuration not stated) | 4.99 | 3.08 | 2.7 | 8.57 | 1.66 | 7.65 µM | 4.06 | 14.9 µM | 10.4 | 1.39 | 2.76 µM | 2.44 | 5.85 | 3.09 | 14.5 µM | 1.51 | 2.96 µM | 2.02 | 1.29 | 2.5
O=C(Nc1ccc(Cl)c(Cl)c1)C(=O)C(C1OC(=O)c2ccccc21)[N+](=O)[O-] (configuration not stated) | > 100 | > 100 | – | > 100 | – | > 100 µM | – | > 100 µM | > 100 | – | > 100 µM | – | > 100 | – | > 100 µM | – | > 100 µM | – | – | –
CC1(C)CC(=O)C(CC(C(=O)C(=O)Nc2cc(C(F)(F)F)ccc2Cl)C(=O)c2ccco2)C(=O)C1 (configuration not stated) | > 100 | > 100 | – | > 100 | – | > 100 µM | – | > 100 µM | > 100 | – | > 100 µM | – | > 100 | – | > 100 µM | – | > 100 µM | – | – | –
Fc1ccc(CNc2c3ccccc3nc3ccccc23)cc1 | 18 | 4.07 | 2.9 | 10.8 | 2.3 | 6.69 µM | 2.37 | 5.43 µM | 16.8 | 1.73 | 3.1 µM | 2.56 | 10.1 | 2.64 | 10.5 µM | 3.02 | 14.1 µM | 4.66 | 1.89 | 3.11
O=C(CCc1nnc(-c2c(Cl)cccc2Cl)o1)c1nc2ccccc2[nH]1 | 92.4 | 4.77 | 4.07 | 25.8 | 4.99 | 28.6 µM | 5.63 | 24.8 µM | > 100 | 2.88 | 14.9 µM | 4.6 | 30.5 | 6.22 | 56.9 µM | 10.9 | 77.6 µM | 7.54 | 2 | 3.71
